Assay results published in patent US20260226011A1, “COMPOSITIONS AND METHODS FOR TREATING OCULAR DISEASES OR DISORDERS” (Translatum Medicus Inc., priority 2023, published 2026).

Experiments:
[1] = system: monocyte chemoattractant protein-1 (MCP-1); experiment: MCP-1 (ccl2) mRNA expression (qPCR) after LPS stimulation of PMA-differentiated THP-1 macrophages; assay type: cell-based, Human; conditions: 150 μM compound, LPS 100 ng/ml for 1 hour, qPCR delta delta Ct (FIG. 1)
Protocol: Human THP-1 monocytes were seeded at 5×10^5-9×10^5 in a 6-well plate. Phorbol myristate acetate (5 ng/ml, PMA) was added for 48-72 hours, to induce differentiation from monocytes to macrophages. Cells were then starved for 3 hours.
Cells were harvested in RNALater (Qiagen), and prepared for quantitative polymerase chain reaction (qPCR). Total RNA was isolated using Trizol Reagent (Life Technologies) based on the manufacturer's protocol and its quantity and quality checked with a Nanodrop 2000 spectrophotometer (Thermo Scientific, USA). QuantiTect Reverse Transcription Kit with separate genomic DNA removal step (Qiagen) was used based on the manufacturer's protocol. Briefly, 0.5 μg total RNA was used for each sample during reverse transcription and the resulting cDNA solution was further diluted to 10 ng/ul with nuclease free water and stored at-20 C.
PowerUp SYBR Green Master Mix (ThermoFisher Scientific) was used for quantitative PCR based on manufacturer's protocol. […]
Relative quantification method based on delta delta Ct was used for comparison of gene expression levels in various arms. Briefly, relative quantification and statistical analysis were performed using Relative Expression Software Tool-Multiple Condition Solver (REST-MCS, V2) based on the protocol by M. W. Pfaffl & G. W. Horgan (2006), which is incorporated by reference herein in its entirety.

[2] = Acid hydrolysis of bindarit conjugates in 12M HCl, read by NMR; assay type: physicochemical; conditions: for hydrolysis in 12M HCl: 12M HCl at 40° C., overnight; for conjugate hydrolized (acid hydrolysis): 12M HCl, 40° C., stirred 16 hours, NMR in D2O
Protocol: Acid hydrolysis: 4 mg bindarit-taurine conjugate was added to 4 mL 12M HCl. The reaction mixture was heated to 40° C. and stirred for 16 hours, followed by concentration of the reaction mixture. About 70% (mol %) of the bindarit-taurine conjugate was hydrolized as identified by NMR in D2O (FIG. 10).
3 mg bindarit-carnosine conjugate was added to 3 mL 12M HCl. The reaction mixture was heated to 40° C. and stirred for 16 hours, followed by concentration of the reaction mixture. About 50% (mol %) of the bindarit-carnosine conjugate was hydrolized as identified by NMR in D2O (FIG. 12).

hydrolysis in 12M HCl [2] [%]	conjugate hydrolized (acid hydrolysis) [2]	SMILES	ability to reduce MCP-1 mRNA [1]
–	–	CCOC(=O)C(C)(C)OCc1nn(Cc2ccccc2)c2ccccc12 [bindarit ethyl ester, ethyl 2-((1-benzl-1H-indazol-3-yl)methoxy)-2-methylpropanoate]	equally as efficacious as bindarit
50	About 50 % (mol %)	CC(C)(OCc1nn(Cc2ccccc2)c2ccccc12)C(=O)NCCC(=O)N[C@@H](Cc1cnc[nH]1)C(=O)O [bindarit-carnosine conjugate]	–
70	About 70 % (mol %)	CC(C)(OCc1nn(Cc2ccccc2)c2ccccc12)C(=O)NCCS(=O)(=O)O [bindarit-taurine conjugate]	–
